# Reference: US8598193B2, “Polycyclic agents for the treatment of respiratory syncytial virus infections” (Biota Scientific Management Pty Ltd., priority 2003, dated 2013)
# Like-named read-outs stand apart in the source and are kept apart here.
# Tested on: RSV A2
# Experiment: RSV antiviral cytopathic effect (CPE) assay, MTT readout
# Type: cell-based
# Conditions: human respiratory syncytial virus, HEp-2, 120 h, read-out: Activity Range (RSV A2 antiviral EC50), compounds of Table 2
# Protocol: Method Q: RSV Antiviral Assay Protocol
# Compounds of the invention were tested for their antiviral activity against respiratory syncytial virus. Cytopathic effect (CPE) assays were performed essentially as described in the literature (see for example Watanabe et al, 1. Virological Methods, 1994, 48, 257). Serial dilutions of the test compounds were made in assay medium. HEp2 cells (1.0×10^4 cells/well) were infected with RSV at a low multiplicity of infection (e.g. RSV A2 at an moi of 0.01) and 100 μL added to cultures assessing antiviral activity and cells without virus added to those assessing compound cytotoxicity. Assays were incubated for approximately 5 days at 37° C. in a 5% CO2 atmosphere. The extent of CPE was determined via metabolism of the vital dye 3-(4,5-dimethylthiaxol-2-yl)-2,5-diphenyltetrazolium bromide (MTT). A 3 mg/ml stock of MTT was made in assay medium and 100 μL added to each well, taking the final MTT concentration to […]. After 2 hours incubation at 37° C., the media-MTT solution was removed and 200 μL of isopropanol was added to dissolve the vital dye crystals. Plates were shaken and the absorbance read at 540 nm. The compound concentrations that inhibited CPE by 50% (EC50) and developed cytotoxicity (CC50) were calculated using an Excel curve fitting program.
# [1] = RSV A2 in HEp2 cells, CPE assay, MTT, approx. 5 days
SMILES,EC50 [1],EC50
Cc1ccc(C23c4ccccc4C(=O)N2CCN3C(=O)NCc2ccccc2)cc1 (centres unmarked) [Compound 82],0.25 to 1 µg/mL,–
COc1ccc(NC(=O)N2CCN3C(=O)c4ccccc4C23c2ccc(Cl)cc2)cc1 (centres unmarked) [Compound 85],0.1 to 0.25 µg/mL,–
COc1ccc(NC(=O)N2CCN3C(=O)c4ccccc4C23c2ccc(C)cc2)cc1 (centres unmarked) [Compound 86],0.1 to 0.25 µg/mL,–
O=C(NCc1ccc(F)cc1)N1CCN2C(=O)c3ccccc3C12c1ccc(Cl)cc1 (centres unmarked) [Compound 87],0.1 to 0.25 µg/mL,–
Cc1ccc(C23c4ccccc4C(=O)N2CCN3C(=O)NCc2ccc(F)cc2)cc1 (centres unmarked) [Compound 88],< 0.1 µg/mL,–
CCC(=O)N1CCN2C(=O)c3ccccc3C12c1ccc(C)cc1 (centres unmarked) [Compound 117],0.25 to 1 µg/mL,–
Cc1ccc(CNC(=O)N2CCN3C(=O)c4ccccc4C23c2ccc(C)cc2)cc1 (centres unmarked) [Compound 178],0.25 to 1 µg/mL,–
COc1ccc(CNC(=O)N2CCN3C(=O)c4ccccc4C23c2ccc(C)cc2)cc1 (centres unmarked) [Compound 179],0.25 to 1 µg/mL,–
COc1ccc(CNC(=O)N2CCN3C(=O)c4ccccc4C23c2ccc(Cl)cc2)cc1 (centres unmarked) [Compound 180],0.25 to 1 µg/mL,–
O=C(c1ccno1)N1CCN2C(=O)c3ccccc3C12c1ccc(Cl)cc1 (centres unmarked) [Compound 183],0.1 to 0.25 µg/mL,–
Cc1nnsc1C(=O)N1CCN2C(=O)c3ccccc3C21c1ccc(Cl)cc1 (centres unmarked) [Compound 184],–,< 0.1 µg/mL
Cc1nc(C(=O)N2CCN3C(=O)c4ccccc4C23c2ccc(Cl)cc2)cs1 (centres unmarked) [Compound 188],0.25 to 1 µg/mL,–
CCc1ccc(C23c4ccccc4C(=O)N2CCN3C(=O)Cc2ccc(OC)cc2)cc1 (centres unmarked) [Compound 190],0.25 to 1 µg/mL,–
CCC(=O)N1CCN2C(=O)c3ccccc3C12c1ccc(CC)cc1 (centres unmarked) [Compound 192],0.25 to 1 µg/mL,–
CCCc1ccc(C23c4ccccc4C(=O)N2CCN3C(=O)CC)cc1 (centres unmarked) [Compound 199],0.25 to 1 µg/mL,–
CCCc1ccc(C23c4ccccc4C(=O)N2CCN3C(=O)Cc2ccc(OC)cc2)cc1 (centres unmarked) [Compound 201],0.25 to 1 µg/mL,–
O=C(c1csc(-c2cccnc2)n1)N1CCN2C(=O)c3ccccc3C12c1ccc(Cl)cc1 (centres unmarked) [Compound 205],< 0.1 µg/mL,–
COc1ccc(CCC(=O)N2CCN3C(=O)c4ccccc4C23c2ccc(Cl)cc2)cc1 (centres unmarked) [Compound 211],0.25 to 1 µg/mL,–
CC(C)CC(=O)N1CCN2C(=O)c3ccccc3C12c1ccc(Cl)cc1 (centres unmarked) [Compound 214],0.25 to 1 µg/mL,–
O=C(CC1CCCC1)N1CCN2C(=O)c3ccccc3C12c1ccc(Cl)cc1 (centres unmarked) [Compound 216],0.25 to 1 µg/mL,–
O=C(CSCc1ccccc1)N1CCN2C(=O)c3ccccc3C12c1ccc(Cl)cc1 (centres unmarked) [Compound 217],0.1 to 0.25 µg/mL,–
O=C1c2ccccc2C2(c3ccc(Cl)cc3)N1CCN2C(=O)C1Cc2ccccc21 (centres unmarked) [Compound 218],0.25 to 1 µg/mL,–
O=C(c1ccco1)N1CCN2C(=O)c3ccccc3C12c1ccc(Cl)cc1 (centres unmarked) [Compound 219],< 0.1 µg/mL,–
O=C(c1cccs1)N1CCN2C(=O)c3ccccc3C12c1ccc(Cl)cc1 (centres unmarked) [Compound 224],< 0.1 µg/mL,–
O=C(CCCc1ccccc1)N1CCN2C(=O)c3ccccc3C12c1ccc(Cl)cc1 (centres unmarked) [Compound 227],0.25 to 1 µg/mL,–

SMILES,EC50 [1],EC50
O=C(CCCc1c[nH]c2ccccc12)N1CCN2C(=O)c3ccccc3C12c1ccc(Cl)cc1 (centres unmarked) [Compound 228],0.25 to 1 µg/mL,–
O=C(c1cccnc1)N1CCN2C(=O)c3ccccc3C12c1ccc(Cl)cc1 (centres unmarked) [Compound 230],< 0.1 µg/mL,–
COc1ccc(CC(=O)N2CCN3C(=O)c4ccccc4C23c2ccc(Br)cc2)cc1 (centres unmarked) [Compound 235],0.1 to 0.25 µg/mL,–
CCC(=O)N1CCN2C(=O)c3ccccc3C12c1ccc(Br)cc1 (centres unmarked) [Compound 236],0.1 to 0.25 µg/mL,–
O=C(Cc1cccc(Br)c1)N1CCN2C(=O)c3ccccc3C12c1ccc(Cl)cc1 (centres unmarked) [Compound 242],0.1 to 0.25 µg/mL,–
O=C(c1csnn1)N1CCN2C(=O)c3ccccc3C12c1ccc(Cl)cc1 (centres unmarked) [Compound 243],< 0.1 µg/mL,–
O=C1c2ccccc2C2(c3ccc(Cl)cc3)N1CCN2C(=O)c1cccc2c1OCCO2 (centres unmarked) [Compound 245],0.25 to 1 µg/mL,–
C=CCCC(=O)N1CCN2C(=O)c3ccccc3C12c1ccc(Cl)cc1 (centres unmarked) [Compound 250],0.25 to 1 µg/mL,–
O=C(CSc1ccccn1)N1CCN2C(=O)c3ccccc3C12c1ccc(Cl)cc1 (centres unmarked) [Compound 299],0.25 to 1 µg/mL,–
O=C(CSc1ncccn1)N1CCN2C(=O)c3ccccc3C12c1ccc(Cl)cc1 (centres unmarked) [Compound 303],0.25 to 1 µg/mL,–
COc1ccc(CC(=O)N2CCN3C(=O)c4ccccc4C23c2ccc(C(F)(F)F)cc2)cc1 (centres unmarked) [Compound 304],0.25 to 1 µg/mL,–
CCC(=O)N1CCN2C(=O)c3ccccc3C12c1ccc(C(F)(F)F)cc1 (centres unmarked) [Compound 305],0.25 to 1 µg/mL,–
O=C(c1ccc(Cl)nc1)N1CCN2C(=O)c3ccccc3C12c1ccc(Cl)cc1 (centres unmarked) [Compound 312],0.25 to 1 µg/mL,–
O=C(c1ccc(F)nc1)N1CCN2C(=O)c3ccccc3C12c1ccc(OCC2CC2)cc1 (centres unmarked) [Compound 316],< 0.1 µg/mL,–
Nc1ccc(C(=O)N2CCN3C(=O)c4ccccc4C23c2ccc(Cl)cc2)cn1 (centres unmarked) [Compound 319],0.25 to 1 µg/mL,–
NCCNc1ccc(C(=O)N2CCN3C(=O)c4ccccc4C23c2ccc(Cl)cc2)cn1 (centres unmarked) [Compound 320],0.25 to 1 µg/mL,–
O=C1c2ccccc2C2(c3ccc(Cl)cc3)N1CCN2C(=O)[C@@H]1CSC(c2cccs2)=N1 (some centres unmarked) [Compound 323],0.25 to 1 µg/mL,–
O=C(c1csc(-c2cccs2)n1)N1CCN2C(=O)c3ccccc3C12c1ccc(Cl)cc1 (centres unmarked) [Compound 324],0.1 to 0.25 µg/mL,–
Cc1cc(C(=O)N2CCN3C(=O)c4ccccc4C32c2ccc(Cl)cc2)c(C)o1 (centres unmarked) [Compound 325],< 0.1 µg/mL,–
O=C(c1ccoc1)N1CCN2C(=O)c3ccccc3C12c1ccc(Cl)cc1 (centres unmarked) [Compound 326],0.1 to 0.25 µg/mL,–
O=C(c1ccsc1)N1CCN2C(=O)c3ccccc3C12c1ccc(Cl)cc1 (centres unmarked) [Compound 327],0.1 to 0.25 µg/mL,–
O=C1c2ccccc2C2(c3ccc(Cl)cc3)N1CCN2C(=O)c1sccc1Cl (centres unmarked) [Compound 328],0.1 to 0.25 µg/mL,–
CCOc1ccsc1C(=O)N1CCN2C(=O)c3ccccc3C21c1ccc(Cl)cc1 (centres unmarked) [Compound 329],0.1 to 0.25 µg/mL,–
O=C(c1cccc(Cl)n1)N1CCN2C(=O)c3ccccc3C12c1ccc(Cl)cc1 (centres unmarked) [Compound 330],0.1 to 0.25 µg/mL,–
O=C1c2ccccc2C2(c3ccc(Cl)cc3)N1CCN2C(=O)c1nsc(Cl)c1Cl (centres unmarked) [Compound 331],0.25 to 1 µg/mL,–

# Further lines, with some results ahead:
EC50 [1],SMILES,EC50
0.1 to 0.25 µg/mL,O=C(c1ccc(F)cc1)N1CCN2C(=O)c3ccccc3C12c1cccc(Cl)c1 (centres unmarked) [Compound 144],–
< 0.1 µg/mL,CCc1ccc(C23c4ccccc4C(=O)N2CCN3C(=O)c2ccc(F)cc2)cc1 (centres unmarked) [Compound 191],–
< 0.1 µg/mL,CCCc1ccc(C23c4ccccc4C(=O)N2CCN3C(=O)c2ccc(F)cc2)cc1 (centres unmarked) [Compound 200],–
0.25 to 1 µg/mL,CC(C)c1ccc(C23c4ccccc4C(=O)N2CCN3C(=O)c2ccc(F)cc2)cc1 (centres unmarked) [Compound 203],–
0.25 to 1 µg/mL,O=C(c1ccc(F)cc1)N1CCN2C(=O)c3ccccc3C12c1ccc(F)cc1 (centres unmarked) [Compound 231],–
0.25 to 1 µg/mL,COc1ccc(CC(=O)N2CCN3C(=O)c4ccccc4C23c2ccc(F)cc2)cc1 (centres unmarked) [Compound 232],–
< 0.1 µg/mL,O=C(c1ccc(F)cc1)N1CCN2C(=O)c3ccccc3C12c1ccc(Br)cc1 (centres unmarked) [Compound 234],–
0.25 to 1 µg/mL,O=C(Oc1ccc(C23c4ccccc4C(=O)N2CCN3C(=O)c2ccc(F)cc2)cc1)c1ccc(F)cc1 (centres unmarked) [Compound 237],–
0.1 to 0.25 µg/mL,COCCOc1ccc(C23c4ccccc4C(=O)N2CCN3C(=O)c2ccc(F)cc2)cc1 (centres unmarked) [Compound 238],–
0.1 to 0.25 µg/mL,N#CCOc1ccc(C23c4ccccc4C(=O)N2CCN3C(=O)c2ccc(F)cc2)cc1 (centres unmarked) [Compound 239],–
0.1 to 0.25 µg/mL,N#CCCCOc1ccc(C23c4ccccc4C(=O)N2CCN3C(=O)c2ccc(F)cc2)cc1 (centres unmarked) [Compound 260],–
0.1 to 0.25 µg/mL,O=C(c1ccc(F)cc1)N1CCN2C(=O)c3ccccc3C12c1ccc(OCCCCl)cc1 (centres unmarked) [Compound 261],–
0.1 to 0.25 µg/mL,O=C(c1ccc(F)cc1)N1CCN2C(=O)c3ccccc3C12c1ccc(OCc2ccccc2)cc1 (centres unmarked) [Compound 262],–
0.1 to 0.25 µg/mL,Cc1noc(C)c1COc1ccc(C23c4ccccc4C(=O)N2CCN3C(=O)c2ccc(F)cc2)cc1 (centres unmarked) [Compound 263],–
0.25 to 1 µg/mL,O=C(c1ccc(F)cc1)N1CCN2C(=O)c3ccccc3C12c1ccc(OCCCCCl)cc1 (centres unmarked) [Compound 264],–
0.1 to 0.25 µg/mL,O=C(c1ccc(F)cc1)N1CCN2C(=O)c3ccccc3C12c1ccc(OCCCl)cc1 (centres unmarked) [Compound 265],–
0.25 to 1 µg/mL,NC(=O)COc1ccc(C23c4ccccc4C(=O)N2CCN3C(=O)c2ccc(F)cc2)cc1 (centres unmarked) [Compound 266],–
< 0.1 µg/mL,O=C(c1ccc(F)cc1)N1CCN2C(=O)c3ccccc3C12c1ccc(OCC2CC2)cc1 (centres unmarked) [Compound 267],–
0.25 to 1 µg/mL,CC(=O)COc1ccc(C23c4ccccc4C(=O)N2CCN3C(=O)c2ccc(F)cc2)cc1 (centres unmarked) [Compound 268],–
0.1 to 0.25 µg/mL,O=C(c1ccc(F)cc1)N1CCN2C(=O)c3ccccc3C12c1ccc(C(F)(F)F)cc1 (centres unmarked) [Compound 307],–
0.1 to 0.25 µg/mL,CCOc1ccc(C23c4ccccc4C(=O)N2CCN3C(=O)c2ccc(F)cc2)cc1 (centres unmarked) [Compound 308],–
0.25 to 1 µg/mL,CC(C)Oc1ccc(C23c4ccccc4C(=O)N2CCN3C(=O)c2ccc(F)cc2)cc1 (centres unmarked) [Compound 310],–
0.1 to 0.25 µg/mL,CCCOc1ccc(C23c4ccccc4C(=O)N2CCN3C(=O)c2ccc(F)cc2)cc1 (centres unmarked) [Compound 311],–
0.1 to 0.25 µg/mL,O=C(c1ccc(F)nc1)N1CCN2C(=O)c3ccccc3C12c1ccc(F)cc1 (centres unmarked) [Compound 314],–
